This note sets out measurements from patent publication US20170223995A1, “Sweetener Blend Compositions” (The Coca-Cola Company, priority 2011, published 2017).

This experiment can be described thus: Multi-sip and swallow taste test by a trained taste tester. It counts as in vivo. The method, then:
Multi-Sip and Swallow Test Method
A sip (approximately 2.0-5.0 mL) of a sample was swallowed by a trained taste tester. After allowing a 15-25 second interval to pass, a second sip of the sample is tasted and swallowed. This process is repeated as needed to determine the taste properties. The taste properties are then recorded by the trained taste tester. Preferably no more than ten samples are tested per day to avoid taste fatigue. Each sample was taken at least 1.5 hours following eating or drinking.

[1] abbreviates: as restated in the Discussion, out of highest five.
Setting [2] is: 500 ppm in carbon-treated water.
[3] abbreviates: 100,000 ppm in carbon-treated water.

With `C=C1C[C@@]23CC[C@H]4[C@@](C)(CCC[C@@]4(C)C(=O)O[C@@H]4O[C@H](CO)[C@@H](O)[C@H](O)[C@H]4O[C@@H]4O[C@H](CO)[C@@H](O)[C@H](O)[C@H]4O)[C@@H]2CC[C@]1(O[C@@H]1O[C@H](CO)[C@@H](O)[C@H](O[C@@H]2O[C@H](CO)[C@@H](O)[C@H](O)[C@H]2O)[C@H]1O[C@@H]1O[C@H](CO)[C@@H](O)[C@H](O)[C@H]1O)C3` [rebaudioside D], the “sweetness (in words, compared with rebaudioside A)” value (Discussion) is “less sweetness”. Moreover, the sweetness linger under setting [1] turned out to be 5. Moreover, the “sugar-like tasting quality (in words, comparison)” value (text remarks, comparison with rebaudioside A) is recorded as “slightly more sugar-like taste quality”.

In the case of `C=C1C[C@@]23CC[C@H]4[C@@](C)(CCC[C@@]4(C)C(=O)O[C@@H]4O[C@H](CO)[C@@H](O)[C@H](O)[C@H]4O)[C@@H]2CC[C@]1(O[C@@H]1O[C@H](CO)[C@@H](O)[C@H](O)[C@H]1O[C@@H]1O[C@H](CO)[C@@H](O)[C@H](O)[C@H]1O)C3` [stevioside], under setting [2], the bitterness intensity was 5 out of 5, the sugar-like tasting quality was 0 out of 5, the sweetness intensity is listed as 5 out of 10 and the sweetness linger is recorded as 5 out of 5.

Under setting [3], `OC[C@H]1O[C@@](CO)(O[C@H]2O[C@H](CO)[C@@H](O)[C@H](O)[C@H]2O)[C@@H](O)[C@@H]1O` [sugar] displayed a bitterness intensity of 0, a sugar-like tasting quality of 5, a sweetness intensity of 10 and a sweetness linger of 0.

Turning to `C=C1C[C@@]23CC[C@H]4[C@@](C)(CCC[C@@]4(C)C(=O)O[C@@H]4O[C@H](CO)[C@@H](O)[C@H](O)[C@H]4O)[C@@H]2CC[C@]1(O[C@@H]1O[C@H](CO)[C@@H](O)[C@H](O[C@@H]2O[C@H](CO)[C@@H](O)[C@H](O)[C@H]2O)[C@H]1O[C@@H]1O[C@H](CO)[C@@H](O)[C@H](O)[C@H]1O)C3` [rebaudioside A], under setting [2], the bitterness intensity was 4 out of 5, the sugar-like tasting quality is recorded as 0 out of 5, the sweetness intensity is 5 out of 10 and the sweetness linger is listed as 5 out of 5. Moreover, the sweetness linger under setting [1] is listed as 5.

Regarding `C=C1C[C@@]23CC[C@H]4[C@@](C)(CCC[C@@]4(C)C(=O)O)[C@@H]2CC[C@]1(O[C@@H]1O[C@H](CO)[C@@H](O)[C@H](O)[C@H]1O[C@@H]1O[C@H](CO)[C@@H](O)[C@H](O)[C@H]1O)C3` [steviolbioside], under setting [2], the bitterness intensity result is reported as “no bitterness”, the sugar-like tasting quality was 2 out of 5, the sweetness intensity was 5 out of 10 and the sweetness linger is 3 out of 5. Under setting [2], the sweetness onset result was “slow sweetness onset”.

For rebaudioside B, under setting [2], the bitterness intensity is 0 out of 5, the sugar-like tasting quality is given as 3 out of 5, the sweetness intensity was 2 out of 10 and the sweetness linger is 3 out of 5. The same compound registered a sweetness linger under setting [1] of 3.
